# Experiments:
# Assay in all cases: Kinase panel radiometric filter binding (33P-ATP)
# Assay type in all cases: biochemical
# [1] = biological target: EF2K (Homo sapiens, UniProt O00418); design: dose or concentration left out as unconfirmed
# Method in brief: (§1)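 Compounds were screened at 1 µM against a 140-kinase panel in a radiometric filter-binding assay with 33P-ATP, and residual kinase activity was recorded with s.d. Where activity fell below 20%, full concentration-response curves gave pIC50 values.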
# [2] = biological target: MNK1 (Homo sapiens, UniProt Q9BUB5); design: dose or concentration left out as unconfirmed
# Method in brief: as §1
# [3] = biological target: PAK2 (Homo sapiens, UniProt Q13177); design: dose or concentration left out as unconfirmed
# PAK2, sequence (Q13177 whole entry): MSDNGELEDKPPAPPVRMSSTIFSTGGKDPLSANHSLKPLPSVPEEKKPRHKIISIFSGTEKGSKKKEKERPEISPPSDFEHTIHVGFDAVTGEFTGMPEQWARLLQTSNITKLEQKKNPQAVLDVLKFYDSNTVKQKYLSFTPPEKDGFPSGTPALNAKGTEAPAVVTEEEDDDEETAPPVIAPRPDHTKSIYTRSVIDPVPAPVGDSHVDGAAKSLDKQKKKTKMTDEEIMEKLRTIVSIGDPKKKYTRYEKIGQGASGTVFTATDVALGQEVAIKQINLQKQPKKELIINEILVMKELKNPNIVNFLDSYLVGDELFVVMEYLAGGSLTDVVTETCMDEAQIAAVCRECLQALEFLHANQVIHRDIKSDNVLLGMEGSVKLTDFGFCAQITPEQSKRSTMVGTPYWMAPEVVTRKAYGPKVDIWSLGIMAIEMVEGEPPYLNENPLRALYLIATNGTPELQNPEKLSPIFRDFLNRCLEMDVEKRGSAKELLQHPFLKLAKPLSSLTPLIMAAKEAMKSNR
# Method in brief: as §1
# [4] = biological target: DAPK1 (Homo sapiens, UniProt P53355); design: dose or concentration left out as unconfirmed
# Method in brief: as §1
# [5] = biological target: SRPK1 (Homo sapiens, UniProt Q96SB4); design: dose or concentration left out as unconfirmed
# SRPK1, sequence (Q96SB4 whole entry): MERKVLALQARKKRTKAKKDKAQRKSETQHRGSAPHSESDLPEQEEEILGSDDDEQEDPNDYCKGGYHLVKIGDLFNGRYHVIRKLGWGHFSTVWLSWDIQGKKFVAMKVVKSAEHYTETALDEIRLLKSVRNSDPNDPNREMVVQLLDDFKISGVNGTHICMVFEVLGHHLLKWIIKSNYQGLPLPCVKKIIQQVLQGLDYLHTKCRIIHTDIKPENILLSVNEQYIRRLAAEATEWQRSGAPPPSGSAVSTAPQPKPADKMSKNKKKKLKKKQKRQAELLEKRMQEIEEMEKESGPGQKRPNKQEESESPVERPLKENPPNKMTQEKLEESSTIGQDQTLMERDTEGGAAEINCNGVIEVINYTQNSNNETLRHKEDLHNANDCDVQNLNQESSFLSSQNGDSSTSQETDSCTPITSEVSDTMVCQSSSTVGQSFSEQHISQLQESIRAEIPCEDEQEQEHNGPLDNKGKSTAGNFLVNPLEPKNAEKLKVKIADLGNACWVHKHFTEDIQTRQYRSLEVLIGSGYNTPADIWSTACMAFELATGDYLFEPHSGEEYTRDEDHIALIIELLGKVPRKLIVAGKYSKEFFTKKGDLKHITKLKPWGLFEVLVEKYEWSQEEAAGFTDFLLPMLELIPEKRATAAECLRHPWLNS
# Method in brief: as §1
# [6] = biological target: HER4 (Homo sapiens, UniProt Q15303); design: dose or concentration left out as unconfirmed
# Method in brief: as §1
# [7] = biological target: ERK1 (Homo sapiens, UniProt P27361); design: dose or concentration left out as unconfirmed
# Method in brief: as §1
# [8] = biological target: CAMK1 (Homo sapiens, UniProt Q14012); design: dose or concentration left out as unconfirmed
# Method in brief: as §1
# [9] = biological target: CK2 (Homo sapiens, UniProt P68400); design: dose or concentration left out as unconfirmed
# CK2, sequence (P68400 whole entry): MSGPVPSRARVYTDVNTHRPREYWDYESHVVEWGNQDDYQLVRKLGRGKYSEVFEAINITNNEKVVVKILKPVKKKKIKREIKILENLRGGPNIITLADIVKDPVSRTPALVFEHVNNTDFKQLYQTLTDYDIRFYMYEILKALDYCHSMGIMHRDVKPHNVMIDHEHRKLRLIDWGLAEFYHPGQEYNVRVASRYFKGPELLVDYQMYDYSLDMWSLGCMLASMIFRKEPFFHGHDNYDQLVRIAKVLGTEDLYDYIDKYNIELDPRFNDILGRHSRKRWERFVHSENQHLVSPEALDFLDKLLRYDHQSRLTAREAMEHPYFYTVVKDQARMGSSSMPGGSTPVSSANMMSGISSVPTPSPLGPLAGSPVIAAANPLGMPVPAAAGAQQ
# Method in brief: as §1
# [10] = biological target: MKK6 (Homo sapiens, UniProt P52564); design: dose or concentration left out as unconfirmed
# MKK6, sequence (P52564 whole entry): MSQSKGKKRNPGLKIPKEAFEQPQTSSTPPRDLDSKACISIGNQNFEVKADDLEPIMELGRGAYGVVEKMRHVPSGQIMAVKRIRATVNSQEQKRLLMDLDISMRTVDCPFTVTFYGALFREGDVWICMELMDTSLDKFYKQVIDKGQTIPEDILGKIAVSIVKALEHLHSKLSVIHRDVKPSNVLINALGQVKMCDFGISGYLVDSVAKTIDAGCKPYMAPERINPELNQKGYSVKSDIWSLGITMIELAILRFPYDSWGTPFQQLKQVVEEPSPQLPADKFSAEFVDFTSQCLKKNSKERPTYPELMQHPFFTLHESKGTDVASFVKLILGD
# Method in brief: as §1
# [11] = biological target: MKK1 (Homo sapiens, UniProt Q02750); design: dose or concentration left out as unconfirmed
# Method in brief: as §1
# [12] = biological target: TTBK1 (Homo sapiens, UniProt Q5TCY1); design: dose or concentration left out as unconfirmed
# Method in brief: as §1
# [13] = biological target: T1, MARK3 (Homo sapiens, UniProt P27448); design: dose or concentration left out as unconfirmed
# T1 construct: purchased MRC PPU
# Method in brief: as §1
# [14] = biological target: IKKe (Homo sapiens, UniProt Q14164); design: dose or concentration left out as unconfirmed
# Method in brief: as §1
# [15] = biological target: EIF2AK3 (Homo sapiens, UniProt Q9NZJ5); design: dose or concentration left out as unconfirmed
# Method in brief: as §1
# [16] = biological target: p38a MAPK (Homo sapiens, UniProt Q16539); design: dose or concentration left out as unconfirmed
# Method in brief: as §1
# [17] = biological target: MST2 (Homo sapiens, UniProt Q13188); design: dose or concentration left out as unconfirmed
# Method in brief: as §1
# [18] = biological target: RSK1 (Homo sapiens, UniProt Q15418); design: dose or concentration left out as unconfirmed
# Method in brief: as §1
# [19] = biological target: EPH-B2 (Homo sapiens, UniProt P29323); design: dose or concentration left out as unconfirmed
# Method in brief: as §1
# [20] = biological target: CSK (Homo sapiens, UniProt P41240); design: dose or concentration left out as unconfirmed
# CSK, sequence (P41240 whole entry): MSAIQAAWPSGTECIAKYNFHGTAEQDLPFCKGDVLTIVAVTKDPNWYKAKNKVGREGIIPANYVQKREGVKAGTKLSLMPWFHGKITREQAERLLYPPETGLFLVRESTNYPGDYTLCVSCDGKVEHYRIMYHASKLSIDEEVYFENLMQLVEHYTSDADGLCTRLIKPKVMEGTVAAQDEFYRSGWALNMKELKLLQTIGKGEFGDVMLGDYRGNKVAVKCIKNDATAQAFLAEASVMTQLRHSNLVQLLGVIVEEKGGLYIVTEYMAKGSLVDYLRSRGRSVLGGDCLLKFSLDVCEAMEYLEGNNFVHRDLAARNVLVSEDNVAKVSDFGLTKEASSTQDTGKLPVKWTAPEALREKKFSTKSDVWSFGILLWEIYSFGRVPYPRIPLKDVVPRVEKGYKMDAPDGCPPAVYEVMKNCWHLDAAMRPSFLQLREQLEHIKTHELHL
# Method in brief: as §1
# [21] = biological target: BRK (Homo sapiens, UniProt Q13882); design: dose or concentration left out as unconfirmed
# Method in brief: as §1
# [22] = biological target: TTK (Homo sapiens, UniProt P33981); design: dose or concentration left out as unconfirmed
# TTK, sequence (P33981 whole entry): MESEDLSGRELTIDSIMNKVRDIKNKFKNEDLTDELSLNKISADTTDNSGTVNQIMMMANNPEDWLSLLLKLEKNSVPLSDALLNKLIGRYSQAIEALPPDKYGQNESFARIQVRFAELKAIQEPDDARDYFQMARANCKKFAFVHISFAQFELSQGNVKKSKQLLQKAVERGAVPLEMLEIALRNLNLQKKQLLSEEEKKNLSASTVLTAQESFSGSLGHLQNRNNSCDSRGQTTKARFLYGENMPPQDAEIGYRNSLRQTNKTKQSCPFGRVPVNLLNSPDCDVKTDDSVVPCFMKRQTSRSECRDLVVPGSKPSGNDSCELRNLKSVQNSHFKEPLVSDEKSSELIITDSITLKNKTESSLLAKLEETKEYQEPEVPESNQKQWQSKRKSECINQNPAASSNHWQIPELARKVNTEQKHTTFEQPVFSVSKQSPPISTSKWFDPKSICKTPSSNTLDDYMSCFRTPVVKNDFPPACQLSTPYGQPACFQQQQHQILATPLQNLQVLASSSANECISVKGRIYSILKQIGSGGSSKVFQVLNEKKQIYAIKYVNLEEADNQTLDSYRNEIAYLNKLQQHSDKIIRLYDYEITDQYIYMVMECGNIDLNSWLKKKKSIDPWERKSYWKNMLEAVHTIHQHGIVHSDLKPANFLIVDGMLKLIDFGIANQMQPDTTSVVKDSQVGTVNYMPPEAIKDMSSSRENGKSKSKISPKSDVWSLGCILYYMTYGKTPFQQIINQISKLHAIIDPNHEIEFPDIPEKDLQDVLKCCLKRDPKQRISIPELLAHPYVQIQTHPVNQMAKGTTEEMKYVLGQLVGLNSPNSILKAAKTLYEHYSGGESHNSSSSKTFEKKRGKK
# Method in brief: as §1
# [23] = biological target: PDGFRA (Homo sapiens, UniProt P16234); design: dose or concentration left out as unconfirmed
# Method in brief: as §1
# [24] = biological target: PIM3 (Homo sapiens, UniProt Q86V86); design: dose or concentration left out as unconfirmed
# Method in brief: as §1
# [25] = biological target: EPH-B4 (Homo sapiens, UniProt P54760); design: dose or concentration left out as unconfirmed
# Method in brief: as §1
# [26] = biological target: NEK6 (Homo sapiens, UniProt Q9HC98); design: dose or concentration left out as unconfirmed
# NEK6, sequence (Q9HC98 whole entry): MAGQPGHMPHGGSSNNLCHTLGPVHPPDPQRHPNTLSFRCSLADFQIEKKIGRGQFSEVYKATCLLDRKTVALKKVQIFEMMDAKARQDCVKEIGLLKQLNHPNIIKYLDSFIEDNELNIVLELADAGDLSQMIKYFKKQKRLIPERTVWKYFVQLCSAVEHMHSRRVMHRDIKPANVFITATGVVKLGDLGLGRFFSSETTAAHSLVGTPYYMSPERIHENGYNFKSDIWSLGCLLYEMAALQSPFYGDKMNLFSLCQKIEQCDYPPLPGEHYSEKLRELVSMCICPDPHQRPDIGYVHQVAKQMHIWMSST
# Method in brief: as §1
# [27] = biological target: PKBb (Homo sapiens, UniProt P31751); design: dose or concentration left out as unconfirmed
# PKBb, sequence (P31751 whole entry): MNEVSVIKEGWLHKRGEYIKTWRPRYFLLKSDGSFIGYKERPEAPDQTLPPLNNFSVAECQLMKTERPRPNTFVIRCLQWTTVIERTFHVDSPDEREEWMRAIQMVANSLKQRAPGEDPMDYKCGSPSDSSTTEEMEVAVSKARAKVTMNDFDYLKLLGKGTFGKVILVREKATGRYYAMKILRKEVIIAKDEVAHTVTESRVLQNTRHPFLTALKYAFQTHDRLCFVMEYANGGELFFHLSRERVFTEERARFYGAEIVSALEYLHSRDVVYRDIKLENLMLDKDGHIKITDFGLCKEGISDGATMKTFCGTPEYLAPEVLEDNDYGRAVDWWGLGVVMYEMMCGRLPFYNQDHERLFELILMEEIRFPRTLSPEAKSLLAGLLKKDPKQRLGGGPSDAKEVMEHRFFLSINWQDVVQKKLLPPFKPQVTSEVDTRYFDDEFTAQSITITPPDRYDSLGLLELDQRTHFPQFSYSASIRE
# Method in brief: as §1
# [28] = biological target: JNK2 (Homo sapiens, UniProt P45984); design: dose or concentration left out as unconfirmed
# Method in brief: as §1
# [29] = biological target: MAPKAP-K3 (Homo sapiens, UniProt Q16644); design: dose or concentration left out as unconfirmed
# Method in brief: as §1
# [30] = biological target: MSK1 (Homo sapiens, UniProt O75582); design: dose or concentration left out as unconfirmed
# Method in brief: as §1
# [31] = biological target: IRR (Homo sapiens, UniProt P14616); design: dose or concentration left out as unconfirmed
# Method in brief: as §1
# [32] = biological target: T2, MARK2 (Homo sapiens, UniProt Q7KZI7); design: % activity remaining: dose or concentration left out as unconfirmed; conditions: for % activity remaining: MARK2
# T2 construct: purchased MRC PPU
# T2 sequence (Q7KZI7 whole entry): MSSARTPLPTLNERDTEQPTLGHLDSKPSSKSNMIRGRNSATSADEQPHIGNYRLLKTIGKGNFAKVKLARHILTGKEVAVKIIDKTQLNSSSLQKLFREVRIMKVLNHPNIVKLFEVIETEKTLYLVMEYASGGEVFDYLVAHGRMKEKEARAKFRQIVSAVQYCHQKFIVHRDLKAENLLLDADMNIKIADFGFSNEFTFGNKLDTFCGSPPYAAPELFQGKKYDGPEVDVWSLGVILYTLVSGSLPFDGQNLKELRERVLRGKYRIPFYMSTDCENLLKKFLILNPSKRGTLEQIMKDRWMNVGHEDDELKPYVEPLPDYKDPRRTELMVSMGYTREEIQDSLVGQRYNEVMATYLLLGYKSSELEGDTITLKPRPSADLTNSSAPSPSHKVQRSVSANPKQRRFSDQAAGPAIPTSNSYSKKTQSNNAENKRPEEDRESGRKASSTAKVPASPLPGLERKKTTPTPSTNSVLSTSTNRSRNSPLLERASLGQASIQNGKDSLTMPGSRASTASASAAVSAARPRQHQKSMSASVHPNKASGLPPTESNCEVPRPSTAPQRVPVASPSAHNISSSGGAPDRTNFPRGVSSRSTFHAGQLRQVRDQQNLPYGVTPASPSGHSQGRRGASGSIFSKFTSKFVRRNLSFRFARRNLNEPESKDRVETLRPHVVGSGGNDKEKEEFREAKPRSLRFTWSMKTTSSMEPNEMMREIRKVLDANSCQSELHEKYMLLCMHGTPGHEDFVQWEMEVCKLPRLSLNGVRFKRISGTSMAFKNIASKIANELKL
# Description: Table S4: AMPKA kinase activity data (ADP-Glo assay)
# Compound pIC50 (Fold selectivity
# Table S5. Kinase selectivity screening for 9 and 24 at 1 µM against a general kinase panel of 140 targets
# in radiometric filter binding assay using 33P-γ−ATP at the MRC PPU International Centre for Kinase
# Profiling, University of Dundee. pIC50 values were determined for compounds with <20% activity
# Kinase activity s.d. pIC50 activity s.d. pIC50
SMILES,% activity remaining [1],% activity remaining [2],% activity remaining [3],% activity remaining [4],% activity remaining [5],% activity remaining [6],% activity remaining [7],% activity remaining [8],% activity remaining [9],% activity remaining [10],% activity remaining [11],% activity remaining [12],% activity remaining [13],% activity remaining [14],% activity remaining [15],% activity remaining [16],% activity remaining [17],% activity remaining [18],% activity remaining [19],% activity remaining [20],also measured
Cc1cc(=O)n(C2CCCC2)c2nc(Nc3ccc(N4CC5CC(C4)N5C)cc3)ncc12 [Compound 9],72%,96%,97%,60%,111%,118%,97%,102%,108%,84%,108%,92%,35%,84%,41%,92%,62%,41%,60%,104%,"% activity remaining [21]: 67%; % activity remaining [22]: 54%; % activity remaining [23]: 57%; % activity remaining [24]: 80%; % activity remaining [25]: 61%; % activity remaining [26]: 105%; % activity remaining [27]: 99%; % activity remaining [28]: 35%; % activity remaining [29]: 84%; % activity remaining [30]: 61%; % activity remaining [31]: 70%; % activity remaining [32]: 98%; inhibition at 1 µM ([32]; at 1 μM, radiometric filter binding assay, Dundee, read-out: MARK2 single point % inhibition): 2%"
CN1C2CC1CN(c1ccc(Nc3ncc4ccn(CC5CCOCC5)c4n3)cc1)C2 [Compound 24],102%,72%,107%,125%,79%,74%,98%,129%,96%,88%,71%,103%,104%,93%,86%,93%,91%,74%,82%,97%,% activity remaining [21]: 58%; % activity remaining [22]: 99%; % activity remaining [23]: 90%; % activity remaining [24]: 56%; % activity remaining [25]: 86%; % activity remaining [26]: 98%; % activity remaining [27]: 93%; % activity remaining [28]: 88%; % activity remaining [29]: 109%; % activity remaining [30]: 84%; % activity remaining [31]: 94%; % activity remaining [32]: 101%

# Reference: paper PMC11831560, “Development of the Pyrido[2,3-d]pyrimidin-7(8H)-one Scaffold toward Potent and Selective NUAK1 Inhibitors” (ACS Medicinal Chemistry Letters, 2025)
